{
  "source": "ChEMBL document CHEMBL1124209",
  "about": "“Phosphonoformate and phosphonoacetate derivatives of 5-substituted 2'-deoxyuridines: synthesis and antiviral activity” (1988)",
  "assay_type_in_all_cases": "functional",
  "key": {"Human alphaherpesvirus 2 [1]": {"system": "Human alphaherpesvirus 2", "experiment": "Minimum inhibitory concentration causing 25% inhibition of cytopathic effect induced by Herpes simplex virus(HSV) -2 (thymidine kinase deficient) in HEp-2 cells"}, "Human alphaherpesvirus 1 [2]": {"system": "Human alphaherpesvirus 1", "experiment": "Minimum inhibitory concentration causing 25% inhibition cytopathic effect induced by Herpes simplex virus(HSV) -1 (thymidine kinase deficient) in HEp-2 cells"}, "Human alphaherpesvirus 1 [3]": {"system": "Human alphaherpesvirus 1", "experiment": "Minimum inhibitory concentration causing 25% inhibition of cytopathic effect induced by herpes simplex virus (HSV)-1 (K979) in vero cells."}, "Human alphaherpesvirus 1 [4]": {"system": "Human alphaherpesvirus 1", "experiment": "Minimum inhibitory concentration causing 25% inhibition of cytopathic effect induced by Herpes simplex virus-1 (Brand) in vero cells"}, "Human alphaherpesvirus 1 [5]": {"system": "Human alphaherpesvirus 1", "experiment": "Minimum inhibitory concentration causing 25% inhibition of cytopathic effect induced by Herpes simplex virus-1 (K979) in HEp-2 cells"}, "Oryctolagus cuniculus [6]": {"species_on_record": "Oryctolagus cuniculus", "experiment": "Minimum cytotoxic concentration causing toxic effects on uninfected cells in rabbit"}, "Human alphaherpesvirus 1 [7]": {"system": "Human alphaherpesvirus 1", "experiment": "Minimum inhibitory concentration causing 25% inhibition of cytopathic effect induced by Herpes simplex virus(HSV) -1 (thymidine kinase deficient) in vero cells"}, "Human alphaherpesvirus 1 [8]": {"system": "Human alphaherpesvirus 1", "experiment": "Minimum inhibitory concentration causing 25% inhibition cytopathic effect induced by Herpes simplex virus-1 (Brand) in HEp-2 cells"}, "Human alphaherpesvirus 2 [9]": {"system": "Human alphaherpesvirus 2", "experiment": "Minimum inhibitory concentration causing 25% inhibition cytopathic effect induced by Herpes simplex virus(HSV) -2 (thymidine kinase deficient) in vero cells"}, "Human alphaherpesvirus 2 [10]": {"system": "Human alphaherpesvirus 2", "experiment": "(§1) Minimum inhibitory concentration causing 50% inhibition of cytopathic effect induced by HSV-2 in PRK cells"}, "Human alphaherpesvirus 1 [11]": {"system": "Human alphaherpesvirus 1", "experiment": "Minimum inhibitory concentration causing 50% inhibition of cytopathic effect induced by HSV-1 in PRK cells"}, "Mus musculus [12]": {"system": "Mus musculus", "experiment": "Cumulative mortality in percent of HSV-1 infected mice, after peroral administration of 100 mg/kg of compound", "settings": "route oral"}, "Human alphaherpesvirus 1 [13]": {"system": "Human alphaherpesvirus 1", "experiment": "Minimum inhibitory concentration causing 50% inhibition of cytopathic effect induced by HSV-1(thymidine kinase deficient) in PRK cells"}, "Human alphaherpesvirus 1 [14]": {"system": "Human alphaherpesvirus 1", "experiment": "Minimum inhibitory concentration causing 50% inhibition of cytopathic effect induced by HSV-1 (thymidine kinase deficient) in PRK cells"}, "Oryctolagus cuniculus [15]": {"species_on_record": "Oryctolagus cuniculus", "experiment": "Minimum cytotoxic concentration of compound causing toxic effects on uninfected cells"}, "Human alphaherpesvirus 1 [16]": {"system": "Human alphaherpesvirus 1", "experiment": "Minimum inhibitory concentration causing 25% inhibition of cytopathic effect induced by Herpes simplex virus(HSV) -1 (thymidine kinase deficient) in HEp-2 cells"}, "Human alphaherpesvirus 2 [17]": {"system": "Human alphaherpesvirus 2", "experiment": "Minimum inhibitory concentration causing 25% inhibition cytopathic effect induced by Herpes simplex virus(HSV) -2 (thymidine kinase deficient) in HEp -2 cells"}, "Human alphaherpesvirus 2 [18]": {"system": "Human alphaherpesvirus 2", "experiment": "Minimum inhibitory concentration causing 25% inhibition of cytopathic effect induced by Herpes simplex virus(HSV) -2 (thymidine kinase deficient) in vero cells"}, "Mus musculus [19]": {"system": "Mus musculus", "experiment": "Mean survival time in HSV-1 infected mice, after intraperitoneal administration of 25 mg/kg"}, "Mus musculus [20]": {"system": "Mus musculus", "experiment": "Cumulative mortality in percent of HSV-1 infected mice, after intraperitoneal administration of 25 mg/kg"}, "Mus musculus [21]": {"system": "Mus musculus", "experiment": "Mean survival time in HSV-1 infected mice, after peroral administration of 100 mg/kg", "settings": "route oral"}, "Human alphaherpesvirus 1 [22]": {"system": "Human alphaherpesvirus 1", "experiment": "as §1"}, "Mus musculus [23]": {"system": "Mus musculus", "experiment": "Cumulative mortality in percent of HSV-1 (KOS strain) infected mice, after peroral administration of 100 mg/kg of compound", "settings": "route oral"}},
  "data": [
    {"smiles": "O=c1[nH]c(=O)n([C@H]2C[C@H](O)[C@@H](CO)O2)cc1I", "note": "[IDOXURIDINE]", "values": [
      {"measurement": "MIC", "setting": "Human alphaherpesvirus 2 [1]", "value": 8.4, "unit": "µM"},
      {"measurement": "MIC", "setting": "Human alphaherpesvirus 1 [2]", "value": 0.8, "unit": "µM"},
      {"measurement": "MIC", "setting": "Human alphaherpesvirus 1 [3]", "value": 2.8, "unit": "µM"},
      {"measurement": "MIC", "setting": "Human alphaherpesvirus 1 [4]", "value": 0.3, "unit": "µM"},
      {"measurement": "MIC", "setting": "Human alphaherpesvirus 1 [5]", "value": 0.8, "unit": "µM"},
      {"measurement": "MTC", "setting": "Oryctolagus cuniculus [6]", "value": 281, "unit": "µM"},
      {"measurement": "MIC", "setting": "Human alphaherpesvirus 1 [7]", "value": 8.4, "unit": "µM"},
      {"measurement": "MIC", "setting": "Human alphaherpesvirus 1 [8]", "value": 0.8, "unit": "µM"},
      {"measurement": "MIC", "setting": "Human alphaherpesvirus 2 [9]", "value": "> 281", "unit": "µM"}
    ]},
    {"smiles": "CCOC(=O)P(=O)(O)OC[C@H]1O[C@@H](n2cc(/C=C\\Br)c(=O)[nH]c2=O)C[C@@H]1O", "values": [
      {"measurement": "MIC", "setting": "Human alphaherpesvirus 2 [10]", "value": "> 81.1", "unit": "µM"},
      {"measurement": "MIC", "setting": "Human alphaherpesvirus 1 [11]", "value": 4.1, "unit": "µM"},
      {"measurement": "MTC", "setting": "Oryctolagus cuniculus [6]", "value": ">=81.1 uM"},
      {"measurement": "CMP", "setting": "Mus musculus [12]", "value": 70},
      {"measurement": "MIC", "setting": "Human alphaherpesvirus 1 [13]", "value": "> 81.1", "unit": "µM"}
    ]},
    {"smiles": "CCOC(=O)CP(=O)(OC)OC[C@H]1O[C@@H](n2cc(I)c(=O)[nH]c2=O)C[C@@H]1O", "note": "(some centres undefined)", "values": [
      {"measurement": "MIC", "setting": "Human alphaherpesvirus 2 [1]", "value": 193, "unit": "µM"},
      {"measurement": "MIC", "setting": "Human alphaherpesvirus 1 [2]", "value": 1.9, "unit": "µM"},
      {"measurement": "MIC", "setting": "Human alphaherpesvirus 1 [3]", "value": 57.9, "unit": "µM"},
      {"measurement": "MIC", "setting": "Human alphaherpesvirus 1 [4]", "value": 1.9, "unit": "µM"},
      {"measurement": "MIC", "setting": "Human alphaherpesvirus 1 [5]", "value": 57.9, "unit": "µM"},
      {"measurement": "MTC", "setting": "Oryctolagus cuniculus [6]", "value": 193, "unit": "µM"},
      {"measurement": "MIC", "setting": "Human alphaherpesvirus 1 [7]", "value": 57.9, "unit": "µM"},
      {"measurement": "MIC", "setting": "Human alphaherpesvirus 1 [8]", "value": 5.8, "unit": "µM"},
      {"measurement": "MIC", "setting": "Human alphaherpesvirus 2 [9]", "value": "> 193", "unit": "µM"}
    ]},
    {"smiles": "O=C(O)P(=O)(O)O", "note": "[FOSCARNET]", "values": [
      {"measurement": "MIC", "setting": "Human alphaherpesvirus 1 [3]", "value": 238, "unit": "µM"},
      {"measurement": "MIC", "setting": "Human alphaherpesvirus 1 [14]", "value": 317, "unit": "µM"},
      {"measurement": "MTC", "setting": "Oryctolagus cuniculus [15]", "value": ">3174", "unit": "µM"},
      {"measurement": "MIC", "setting": "Human alphaherpesvirus 1 [4]", "value": 238, "unit": "µM"},
      {"measurement": "MIC", "setting": "Human alphaherpesvirus 1 [5]", "value": 238, "unit": "µM"},
      {"measurement": "MIC", "setting": "Human alphaherpesvirus 2 [10]", "value": 159, "unit": "µM"},
      {"measurement": "MIC", "setting": "Human alphaherpesvirus 1 [11]", "value": 238, "unit": "µM"},
      {"measurement": "MIC", "setting": "Human alphaherpesvirus 1 [16]", "value": 794, "unit": "µM"},
      {"measurement": "MIC", "setting": "Human alphaherpesvirus 2 [17]", "value": 238, "unit": "µM"},
      {"measurement": "MTC", "setting": "Oryctolagus cuniculus [6]", "value": 2.619, "unit": "µM"},
      {"measurement": "MIC", "setting": "Human alphaherpesvirus 2 [18]", "value": 79.4, "unit": "µM"},
      {"measurement": "MIC", "setting": "Human alphaherpesvirus 1 [7]", "value": 79.4, "unit": "µM"},
      {"measurement": "MIC", "setting": "Human alphaherpesvirus 1 [8]", "value": 794, "unit": "µM"}
    ]},
    {"smiles": "O=c1[nH]c(=O)n([C@H]2C[C@H](O)[C@@H](CO)O2)cc1/C=C/Br", "note": "[BRIVUDINE]", "values": [
      {"measurement": "MIC", "setting": "Human alphaherpesvirus 2 [10]", "value": 32.6, "unit": "µM"},
      {"measurement": "MIC", "setting": "Human alphaherpesvirus 1 [11]", "value": 0.07, "unit": "µM"},
      {"measurement": "MTC", "setting": "Oryctolagus cuniculus [6]", "value": ">1302", "unit": "µM"},
      {"measurement": "CMP", "setting": "Mus musculus [12]", "value": 30},
      {"measurement": "MIC", "setting": "Human alphaherpesvirus 1 [13]", "value": 1300, "unit": "µM"}
    ]},
    {"smiles": "Nc1nc2c(ncn2COCCO)c(=O)[nH]1", "note": "[ACYCLOVIR]", "values": [
      {"measurement": "MIC", "setting": "Human alphaherpesvirus 2 [1]", "value": 440, "unit": "µM"},
      {"measurement": "MIC", "setting": "Human alphaherpesvirus 1 [3]", "value": 1.3, "unit": "µM"},
      {"measurement": "MIC", "setting": "Human alphaherpesvirus 1 [4]", "value": 0.01, "unit": "µM"},
      {"measurement": "MIC", "setting": "Human alphaherpesvirus 1 [5]", "value": 13.2, "unit": "µM"},
      {"measurement": "MIC", "setting": "Human alphaherpesvirus 1 [16]", "value": 440, "unit": "µM"},
      {"measurement": "MST", "setting": "Mus musculus [19]", "value": 18.6, "unit": "days"},
      {"measurement": "MTC", "setting": "Oryctolagus cuniculus [6]", "value": 440, "unit": "µM"},
      {"measurement": "CMP", "setting": "Mus musculus [12]", "value": 10},
      {"measurement": "CMP", "setting": "Mus musculus [20]", "value": 15},
      {"measurement": "MST", "setting": "Mus musculus [21]", "value": 18.9, "unit": "days"},
      {"measurement": "MIC", "setting": "Human alphaherpesvirus 2 [18]", "value": 132, "unit": "µM"},
      {"measurement": "MIC", "setting": "Human alphaherpesvirus 1 [7]", "value": 44, "unit": "µM"},
      {"measurement": "MIC", "setting": "Human alphaherpesvirus 1 [8]", "value": 4.4, "unit": "µM"}
    ]},
    {"smiles": "CCOC(=O)CP(=O)(O)OC[C@H]1O[C@@H](n2cc(/C=C/Br)c(=O)[nH]c2=O)C[C@@H]1O", "values": [
      {"measurement": "MIC", "setting": "Human alphaherpesvirus 1 [22]", "value": "> 828", "unit": "µM"},
      {"measurement": "MIC", "setting": "Human alphaherpesvirus 1 [11]", "value": 41.4, "unit": "µM"},
      {"measurement": "MTC", "setting": "Oryctolagus cuniculus [6]", "value": ">=828 uM"},
      {"measurement": "CMP", "setting": "Mus musculus [23]", "value": 80},
      {"measurement": "MIC", "setting": "Human alphaherpesvirus 1 [13]", "value": "> 828", "unit": "µM"}
    ]}
  ]
}
